Test results from paper PMC5218480 (PLoS ONE, 2017).

Test system: MV-4-11 cells
Assay: Gene expression microarray analysis (Affymetrix PrimeView) and GSEA
Format: cell-based, human
Set-up: RFU PODN (11730768_x_at) / Fold change /veh PODN (11730768_x_at) / RFU LINC00158 (11744669_a_at) / Fold change /veh LINC00158 (11744669_a_at) / RFU DUSP10 (11751237_a_at) / Fold change /veh DUSP10 (11751237_a_at) / RFU ID3 (11757404_x_at) / Fold change /veh ID3 (11757404_x_at) / RFU PLEKHG5 (11737974_s_at) / Fold change /veh PLEKHG5 (11737974_s_at) / RFU LRRC4B (11730491_at) / Fold change /veh LRRC4B (11730491_at) / RFU GIMAP4 (11747438_a_at) / Fold change /veh GIMAP4 (11747438_a_at) / RFU KRT8 (11758183_x_at) / Fold change /veh KRT8 (11758183_x_at) / RFU CNN1 (11734310_a_at) / Fold change /veh CNN1 (11734310_a_at) / RFU VPS37D (11726825_at) / Fold change /veh VPS37D (11726825_at) / RFU C10orf10 (11716522_x_at) / Fold change /veh C10orf10 (11716522_x_at) / RFU KIR2DL2 /// KIR2DL4 /// KIR2DL5A /// KIR2DL5B /// KIR2DS1 /// KIR2DS2 /// KIR2DS3 /// KIR2DS4 /// KIR3DL3 /// KIR3DL3 /// KIR3DS1 (11738374_at) / Fold change /veh KIR2DL2 /// KIR2DL4 /// KIR2DL5A /// KIR2DL5B /// KIR2DS1 /// KIR2DS2 /// KIR2DS3 /// KIR2DS4 /// KIR3DL3 /// KIR3DL3 /// KIR3DS1 (11738374_at) / RFU C1QL1 (11718748_at) / Fold change /veh C1QL1 (11718748_at) / RFU TMPRSS4 (11747572_a_at) / Fold change /veh TMPRSS4 (11747572_a_at) / RFU HAMP (11756126_x_at) / Fold change /veh HAMP (11756126_x_at) / RFU RNFT2 (11725882_a_at) / Fold change /veh RNFT2 (11725882_a_at) / RFU NR4A2 (11747474_a_at) / Fold change /veh NR4A2 (11747474_a_at) / RFU ABCC12 (11746883_a_at) / Fold change /veh ABCC12 (11746883_a_at) / RFU TMEM136 (11760407_x_at) / Fold change /veh TMEM136 (11760407_x_at) / RFU CLDN22 /// WWC2 (11732394_at) / Fold change /veh CLDN22 /// WWC2 (11732394_at) / RFU HLA-DPB1 (11760878_x_at) / Fold change /veh HLA-DPB1 (11760878_x_at) / RFU SPINT1 (11716480_a_at) / Fold change /veh SPINT1 (11716480_a_at) / RFU GAP43 (11754022_s_at) / Fold change /veh GAP43 (11754022_s_at) / RFU A4GNT (11735810_at) / Fold change /veh A4GNT (11735810_at) / RFU PRB3 (11715151_x_at) / Fold change /veh PRB3 (11715151_x_at) / RFU TUBB4B (11761932_at) / Fold change /veh TUBB4B (11761932_at) / RFU CAPN14 (11732068_a_at) / Fold change /veh CAPN14 (11732068_a_at) / RFU TMCC2 (11721928_a_at) / Fold change /veh TMCC2 (11721928_a_at) / RFU IRGQ (11745062_a_at) / Fold change /veh IRGQ (11745062_a_at) / RFU FAM174B (11720279_a_at) / Fold change /veh FAM174B (11720279_a_at) / RFU TMPRSS4 (11748680_a_at) / Fold change /veh TMPRSS4 (11748680_a_at) / RFU FAM212B (11763350_a_at) / Fold change /veh FAM212B (11763350_a_at) / RFU PLEKHG5 (11743358_a_at) / Fold change /veh PLEKHG5 (11743358_a_at) / RFU ZSCAN30 (11745921_a_at) / Fold change /veh ZSCAN30 (11745921_a_at) / RFU CMKLR1 (11741424_a_at) / Fold change /veh CMKLR1 (11741424_a_at) / RFU LOC101060620 /// MAPK8IP1 (11723275_at) / Fold change /veh LOC101060620 /// MAPK8IP1 (11723275_at) / RFU SPTSSB (11747773_x_at) / Fold change /veh SPTSSB (11747773_x_at) / RFU PRSS12 (11739890_at) / Fold change /veh PRSS12 (11739890_at) / RFU BIN1 (11741810_x_at) / Fold change /veh BIN1 (11741810_x_at) / RFU WNT11 (11732464_a_at) / Fold change /veh WNT11 (11732464_a_at) / RFU C10orf10 (11716521_a_at) / Fold change /veh C10orf10 (11716521_a_at) / RFU C5orf56 (11738089_at) / Fold change /veh C5orf56 (11738089_at) / RFU CYB561 (11721691_x_at) / Fold change /veh CYB561 (11721691_x_at) / RFU ANKRD19P (11752326_a_at) / Fold change /veh ANKRD19P (11752326_a_at) / RFU OR2T12 /// OR2T33 /// OR2T8 (11738714_s_at) / Fold change /veh OR2T12 /// OR2T33 /// OR2T8 (11738714_s_at) / RFU VCAN (11748164_a_at) / Fold change /veh VCAN (11748164_a_at) / RFU JSRP1 (11732532_at) / Fold change /veh JSRP1 (11732532_at) / RFU KRTAP10-11 (11738290_x_at) / Fold change /veh KRTAP10-11 (11738290_x_at) / RFU MYO3A (11730013_a_at) / Fold change /veh MYO3A (11730013_a_at) / RFU EBF3 (11725865_a_at) / Fold change /veh EBF3 (11725865_a_at) / RFU CAMK2N1 (11719241_x_at) / Fold change /veh CAMK2N1 (11719241_x_at) / RFU C5orf56 (11738088_a_at) / Fold change /veh C5orf56 (11738088_a_at) / RFU OLFML3 (11715873_a_at) / Fold change /veh OLFML3 (11715873_a_at) / RFU LOC100653217 /// NTM (11731650_a_at) / Fold change /veh LOC100653217 /// NTM (11731650_a_at) / RFU MAPK11 (11762145_a_at) / Fold change /veh MAPK11 (11762145_a_at) / RFU FIZ1 (11724087_x_at) / Fold change /veh FIZ1 (11724087_x_at) / RFU OASL (11726364_x_at) / Fold change /veh OASL (11726364_x_at) / RFU SOX15 (11748057_x_at) / Fold change /veh SOX15 (11748057_x_at) / RFU CD79A (11719716_a_at) / Fold change /veh CD79A (11719716_a_at) / RFU HIST1H1D (11736915_at) / Fold change /veh HIST1H1D (11736915_at) / RFU CASKIN2 (11723855_a_at) / Fold change /veh CASKIN2 (11723855_a_at) / RFU LOC730098 (11760151_x_at) / Fold change /veh LOC730098 (11760151_x_at) / RFU OR4N2 (11742367_at) / Fold change /veh OR4N2 (11742367_at) / RFU PRRT2 (11749266_a_at) / Fold change /veh PRRT2 (11749266_a_at) / RFU SNX32 (11753110_a_at) / Fold change /veh SNX32 (11753110_a_at) / RFU CDHR5 (11726645_a_at) / Fold change /veh CDHR5 (11726645_a_at) / RFU RCAN1 (11760418_a_at) / Fold change /veh RCAN1 (11760418_a_at) / RFU FAM167A (11723789_a_at) / Fold change /veh FAM167A (11723789_a_at) / RFU FAM26E (11764081_at) / Fold change /veh FAM26E (11764081_at) / RFU ISYNA1 (11749810_s_at) / Fold change /veh ISYNA1 (11749810_s_at) / RFU ACY1 (11761880_at) / Fold change /veh ACY1 (11761880_at) / RFU 11764098_at / Fold change /veh 11764098_at / RFU SAMD14 (11745864_x_at) / Fold change /veh SAMD14 (11745864_x_at) / RFU NPB (11741838_a_at) / Fold change /veh NPB (11741838_a_at) / RFU TMPRSS6 (11731388_a_at) / Fold change /veh TMPRSS6 (11731388_a_at) / RFU KRTAP10-2 (11738614_at) / Fold change /veh KRTAP10-2 (11738614_at) / RFU ARHGAP8 /// PRR5-ARHGAP8 (11727945_x_at) / Fold change /veh ARHGAP8 /// PRR5-ARHGAP8 (11727945_x_at) / RFU KRTAP5-7 /// NADSYN1 (11734609_at) / Fold change /veh KRTAP5-7 /// NADSYN1 (11734609_at) / RFU RASL12 (11751679_a_at) / Fold change /veh RASL12 (11751679_a_at) / RFU CDKN2B (11736163_a_at) / Fold change /veh CDKN2B (11736163_a_at) / RFU PRF1 (11729649_at) / Fold change /veh PRF1 (11729649_at) / RFU, ZNF638 /// ZNF638-IT1 / Fold change vs veh, ZNF638 /// ZNF638-IT1 / RFU, PANK3 / Fold change vs veh, PANK3 / RFU, SH3YL1 / Fold change vs veh, SH3YL1 / RFU, ZEB2 / Fold change vs veh, ZEB2 / RFU, NRIP1 / Fold change vs veh, NRIP1 / RFU, PTTG1IP / Fold change vs veh, PTTG1IP / RFU, CAPN2 / Fold change vs veh, CAPN2 / RFU, MED14 / Fold change vs veh, MED14 / RFU, SNORA58 / Fold change vs veh, SNORA58 / RFU, C1orf63 / Fold change vs veh, C1orf63 / RFU, LRRFIP1 / Fold change vs veh, LRRFIP1 / RFU, NDUFAF7 / Fold change vs veh, NDUFAF7 / RFU, SLC12A2 / Fold change vs veh, SLC12A2 / RFU, IBTK / Fold change vs veh, IBTK / RFU, ESF1 / Fold change vs veh, ESF1 / Fold change vs veh, TMEM50B / RFU, TAOK1 / Fold change vs veh, TAOK1 / RFU, ACBD3 / Fold change vs veh, ACBD3 / RFU, TMA16 / Fold change vs veh, TMA16 / RFU, RWDD3 / Fold change vs veh, RWDD3 / RFU, BCAT1 / Fold change vs veh, BCAT1 / RFU, EDEM3 / Fold change vs veh, EDEM3 / RFU, TMEM33 / Fold change vs veh, TMEM33 / RFU, WDR75 / Fold change vs veh, WDR75 / RFU, AHCTF1 / Fold change vs veh, AHCTF1 / RFU, TFRC / Fold change vs veh, TFRC / RFU, ZDHHC17 / Fold change vs veh, ZDHHC17 / RFU, NOM1 / Fold change vs veh, NOM1 / RFU, ARL8B / Fold change vs veh, ARL8B / RFU, ZBTB11 / Fold change vs veh, ZBTB11 / RFU, TAMM41 / Fold change vs veh, TAMM41 / RFU, KIAA1704 /// LOC100996395 / Fold change vs veh, KIAA1704 /// LOC100996395 / RFU, ING1 / Fold change vs veh, ING1 / RFU, TRMT61B / Fold change vs veh, TRMT61B / RFU, FUBP3 / Fold change vs veh, FUBP3 / RFU, TP53 / Fold change vs veh, TP53 / RFU, TNKS2 / Fold change vs veh, TNKS2 / RFU, ZFP14 / Fold change vs veh, ZFP14 / RFU, ACTR2 / Fold change vs veh, ACTR2 / RFU, PPP3R1 / Fold change vs veh, PPP3R1 / RFU, PIK3R1 / Fold change vs veh, PIK3R1 / RFU, HNRNPA1 / Fold change vs veh, HNRNPA1 / RFU, RNF170 / Fold change vs veh, RNF170 / RFU, ZNF28 / Fold change vs veh, ZNF28 / RFU, RNGTT / Fold change vs veh, RNGTT / RFU, OGT / Fold change vs veh, OGT / RFU, BRD1 / Fold change vs veh, BRD1 / RFU, MARS / Fold change vs veh, MARS / RFU, ZNF655 / Fold change vs veh, ZNF655 / RFU, FAHD1 / Fold change vs veh, FAHD1 / RFU, BDP1 / Fold change vs veh, BDP1 / RFU, LRRCC1 / Fold change vs veh, LRRCC1 / RFU, ARID1A / Fold change vs veh, ARID1A / RFU, ZNF146 / Fold change vs veh, ZNF146 / RFU, ZNF330 / Fold change vs veh, ZNF330 / RFU, GPN3 / Fold change vs veh, GPN3 / RFU, C9orf123 / Fold change vs veh, C9orf123 / RFU, N4BP2L2 / Fold change vs veh, N4BP2L2 / RFU, ARFIP1 / Fold change vs veh, ARFIP1 / RFU, FAM179B / Fold change vs veh, FAM179B / RFU, BCL10 / Fold change vs veh, BCL10 / RFU, UHRF1BP1L / Fold change vs veh, UHRF1BP1L / RFU, BET1 / Fold change vs veh, BET1 / RFU, CNOT2 / Fold change vs veh, CNOT2 / RFU, ZNF268 / Fold change vs veh, ZNF268 / Fold change vs veh, ZNF507 / RFU, DGCR2 / Fold change vs veh, DGCR2 / RFU, WDSUB1 / Fold change vs veh, WDSUB1 / Fold change vs veh, HSP90B1 /// MIR3652 / RFU, ADSS / Fold change vs veh, ADSS / RFU, GK / Fold change vs veh, GK / RFU, ZNF148 / Fold change vs veh, ZNF148 / RFU, TAF9 / Fold change vs veh, TAF9 / RFU, SLC1A5 / Fold change vs veh, SLC1A5 / RFU, SLMO2 / Fold change vs veh, SLMO2 / RFU, ABCC4 / Fold change vs veh, ABCC4 / RFU, LOC101060439 /// RAP1B / Fold change vs veh, LOC101060439 /// RAP1B / RFU, RFX7 / Fold change vs veh, RFX7 / RFU, GTPBP10 / Fold change vs veh, GTPBP10 / RFU, CNEP1R1 / Fold change vs veh, CNEP1R1 / RFU, BIVM-ERCC5 /// ERCC5 / Fold change vs veh, BIVM-ERCC5 /// ERCC5 / RFU, ILF3 / Fold change vs veh, ILF3 / RFU 11762660_at / Fold change /veh 11762660_at / RFU VCAN (11757783_s_at) / Fold change /veh VCAN (11757783_s_at) / RFU DDX43 (11728927_at) / Fold change /veh DDX43 (11728927_at) / RFU KRT8 (11758188_x_at) / Fold change /veh KRT8 (11758188_x_at) / RFU NKD1 (11759106_at) / Fold change /veh NKD1 (11759106_at) / RFU SRD5A1 (11742802_a_at) / Fold change /veh SRD5A1 (11742802_a_at) / RFU TPSAB1 /// TPSB2 (11721975_s_at) / Fold change /veh TPSAB1 /// TPSB2 (11721975_s_at) / RFU GSTM3 (11746129_a_at) / Fold change /veh GSTM3 (11746129_a_at) / RFU IL23R (11737362_x_at) / Fold change /veh IL23R (11737362_x_at) / RFU TMEM51 (11727254_a_at) / Fold change /veh TMEM51 (11727254_a_at) / RFU PIWIL2 (11732686_x_at) / Fold change /veh PIWIL2 (11732686_x_at) / RFU ORM1 (11744905_x_at) / Fold change /veh ORM1 (11744905_x_at) / RFU CCDC152 (11743942_at) / Fold change /veh CCDC152 (11743942_at) / RFU ECM1 (11717891_a_at) / Fold change /veh ECM1 (11717891_a_at) / RFU IL23R (11748794_a_at) / Fold change /veh IL23R (11748794_a_at) / RFU TNFAIP8L3 (11732012_x_at) / Fold change /veh TNFAIP8L3 (11732012_x_at) / RFU MBOAT4 (11741988_at) / Fold change /veh MBOAT4 (11741988_at) / RFU 11764193_at / Fold change /veh 11764193_at / RFU TMEM53 (11763286_at) / Fold change /veh TMEM53 (11763286_at) / RFU MAGEB2 (11727129_at) / Fold change /veh MAGEB2 (11727129_at) / RFU TMEM200A (11744735_a_at) / Fold change /veh TMEM200A (11744735_a_at) / RFU CCDC152 (11751479_a_at) / Fold change /veh CCDC152 (11751479_a_at) / RFU FAM211A (11726209_a_at) / Fold change /veh FAM211A (11726209_a_at) / RFU RGS16 (11746705_a_at) / Fold change /veh RGS16 (11746705_a_at) / RFU VCAN (11755009_s_at) / Fold change /veh VCAN (11755009_s_at) / RFU RHOB (11743442_s_at) / Fold change /veh RHOB (11743442_s_at) / RFU RGS16 (11720943_a_at) / Fold change /veh RGS16 (11720943_a_at) / RFU RGS16 (11720944_at) / Fold change /veh RGS16 (11720944_at) / RFU, VPS4B / Fold change vs veh, VPS4B / RFU, CREB1 / Fold change vs veh, CREB1 / RFU, DNAJC13 / Fold change vs veh, DNAJC13 / RFU, GNAQ / Fold change vs veh, GNAQ / RFU, CDK5R1 / Fold change vs veh, CDK5R1 / RFU, ZRANB3 / Fold change vs veh, ZRANB3 / RFU, CUL4A / Fold change vs veh, CUL4A / RFU, CCNY / Fold change vs veh, CCNY / RFU, UFL1 / Fold change vs veh, UFL1 / RFU, COG3 / Fold change vs veh, COG3 / RFU, DIAPH2 / Fold change vs veh, DIAPH2 / RFU, SKA2 / Fold change vs veh, SKA2 / RFU, AFF3 / Fold change vs veh, AFF3 / RFU, LMF1 / Fold change vs veh, LMF1 / RFU, IPO11 / Fold change vs veh, IPO11 / RFU, DFFB / Fold change vs veh, DFFB / RFU, FOXP1 / Fold change vs veh, FOXP1 / RFU, CARD8 / Fold change vs veh, CARD8 / RFU, STRN3 / Fold change vs veh, STRN3 / RFU, ADK / Fold change vs veh, ADK / RFU, RASSF2 / Fold change vs veh, RASSF2 / RFU, WIPF1 / Fold change vs veh, WIPF1 / RFU, LARP1B / Fold change vs veh, LARP1B / RFU, RASA1 / Fold change vs veh, RASA1 / RFU, RB1 / Fold change vs veh, RB1 / RFU, PPFIA1 / Fold change vs veh, PPFIA1 / RFU, MAT2A / Fold change vs veh, MAT2A / RFU, CCT5 / Fold change vs veh, CCT5 / RFU, WDR92 / Fold change vs veh, WDR92 / RFU, CUX1 / Fold change vs veh, CUX1 / RFU, TTC7A / Fold change vs veh, TTC7A / RFU, TMEM135 / Fold change vs veh, TMEM135 / RFU, DEPTOR / Fold change vs veh, DEPTOR / RFU, CPM / Fold change vs veh, CPM / RFU, DNAJB6 / Fold change vs veh, DNAJB6 / RFU, CACNA2D3 / Fold change vs veh, CACNA2D3 / RFU, DTX4 / Fold change vs veh, DTX4 / RFU, TFCP2 / Fold change vs veh, TFCP2 / RFU, GMCL1 /// GMCL1P1 / Fold change vs veh, GMCL1 /// GMCL1P1 / RFU, AEBP2 / Fold change vs veh, AEBP2 / RFU, SNHG1 /// SNORD22 /// SNORD25 /// SNORD26 /// SNORD27 /// SNORD28 /// SNORD29 /// SNORD31 / Fold change vs veh, SNHG1 /// SNORD22 /// SNORD25 /// SNORD26 /// SNORD27 /// SNORD28 /// SNORD29 /// SNORD31 / Fold change (Aza/veh), C12orf56 (ProbeSet 11735607_a_at) / Fold change (ACY-1035/veh), C12orf56 (ProbeSet 11735607_a_at) / Fold change (Aza/veh), FGFR1OP (ProbeSet 11751329_s_at) / Fold change (ACY-1035/veh), FGFR1OP (ProbeSet 11751329_s_at) / Fold change (Aza/veh), VPS36 (ProbeSet 11739960_a_at) / Fold change (ACY-1035/veh), VPS36 (ProbeSet 11739960_a_at) / RFU SYPL1 (11715823_x_at) / Fold change /veh SYPL1 (11715823_x_at) / RFU IGFBP7 (11715501_s_at) / Fold change /veh IGFBP7 (11715501_s_at) / RFU REEP3 (11722064_at) / Fold change /veh REEP3 (11722064_at) / RFU IGLL1 (11728026_x_at) / Fold change /veh IGLL1 (11728026_x_at): dose or concentration left out as unconfirmed
Conditions: ProbeSet 11734937_a_at; LIST B

`Nc1ncn([C@@H]2O[C@H](CO)[C@@H](O)[C@H]2O)c(=O)n1` [azacitidine] was tested, and the “Fold change vs veh, CNOT2” value was 0.93.
